The text below walks through data of PMC5290484, “Structure and lipid-binding properties of the kindlin-3 pleckstrin homology domain” (Biochemical Journal, 2017).

For assay [1], the target named is T1, kindlin-3 PH domain (Mus musculus, UniProt Q8K1B8).
T1 construct: kindlin-3 PH domain (residues 344–479); His6-GST (tandem), followed by HRV-3C site (N, cleaved yes); made in house; host or cells: BirA+ Escherichia coli strain
The assay is described as follows: SPR, immobilised biotinylated kindlin-3 PH domain as ligand, lipid nanodiscs as analyte. Type of assay: binding. The method, then: (§1) The observation in MD simulation that multiple phosphoinositol molecules may bind to more than one site on a single PH domain (Figures 2 and 3) led us to attempt further verification of this mode of interaction experimentally. […] To study the effect of phosphatidylinositol lipid concentrations on their binding by PH domains, we performed the SPR experiments in an inverted set-up. The biotinylated PH domain was immobilised onto the sensor chip and the nanodiscs were prepared as the analyte.
POPC and POPE (1-palmitoyl-2-oleoyl-sn-glycero-3-phosphoethanolamine) were purchased from Avanti Polar Lipids, and PtdIns(4,5)P2 (P-4516), PtdIns(3,4,5)P3 (P-3924), and Ins(1,3,4,5)P4 (Q-1345) were purchased from Echelon Biosciences. Nanodiscs were prepared following standard protocols. Briefly, to prepare nandiscs containing 5% (mol/mol) PtdIns(3,4,5)P3, a mixture of 200 µl of 10 mg/ml POPC, 200 µl of 10 mg/ml POPE together with 670 µl of 0.5 mg/ml PtdIns(3,4,5)P3 in chloroform were dried on a clean Pyrex tube under argon. Chloroform residue was then removed by desiccation in a desiccator attached on a VARIO-SP diaphragm pump (Vacuubrand). The lipid film was subsequently hydrated by adding 1 ml of solubilisation buffer [20 mM HEPES (pH 7.5), 150 mM NaCl, and 17 mM Na-cholate] followed by vigorous votexing. […]
For orientation: SPR reads the build-up and loss of mass on a sensor chip optically.

Assay [2] deals with T2, kindlin-3 PH domain, two lysines within the β1–β2 loop mutated.
T2 construct: kindlin-3 PH domain (residues 344–479); His6-GST (tandem), followed by HRV-3C site (N, cleaved yes); made in house; host or cells: BirA+ Escherichia coli strain
The assay is described as follows: SPR, immobilised kindlin-3 PH domain with two β1–β2 loop lysines mutated, lipid nanodiscs as analyte. Type of assay: binding, mouse. Particulars: site-directed mutagenesis of two lysines within the β1–β2 loop. The method, then:
as §1
SPR experiments were performed using a Biacore T200 machine (GE Healthcare Life Sciences) at 20°C in 10 mM HEPES (pH 7.5) and 150 mM NaCl. PtdIns(4,5)P2 (C-45B6a) and PtdIns(3,4,5)P3 (C-39B6a) were purchased from Echelon Biosciences. The BIAcore CM5 chip (GE Healthcare Life Sciences) was firstly covered with streptavidin following the manufacturer's instructions before the biotinylated PIPs or biotinylated proteins were immobilised. The analyte with twofold serial dilutions was applied at a flow rate of 20 µl/min for 180 s followed by 600 s of dissociation time. The biosensor chip was regenerated after each sample injection cycle with a different buffer in the two experimental set-ups: in the case of immobilised PIPs on the sensor chip, 0.1% SDS was used; when the PH domain was immobilised, then the surface was regenerated by 2 M MgCl2. […]

In assay [3] the target is T3, Grp1 PH domain (Homo sapiens, UniProt O43739).
T3 construct: UniProtKB: O43739) PH domain (residues 264–392) were cloned into a pOPINJ vector; His6-GST (tandem), followed by HRV-3C site (N, cleaved yes); made in house; host or cells: E. coli (same protocol as kindlin-3 PH, B834)
T3 sequence (O43739 264-392): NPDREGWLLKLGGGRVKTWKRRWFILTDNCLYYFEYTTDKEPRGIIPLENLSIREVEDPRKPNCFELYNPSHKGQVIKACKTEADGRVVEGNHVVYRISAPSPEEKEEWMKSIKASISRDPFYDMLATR
Briefly: SPR, immobilised lipid headgroup as ligand, Grp1 PH domain as analyte. It is filed as binding. From the text: We further asked whether our observations are specific to the kindlin-3 PH domain (and similar domains) or could also be shown for PH domains which are already known to bind to inositol phosphate species in a classical, 1:1 interaction mode. If they could be shown for such well-characterised domains, then our results with the kindlin-3 PH domain would seem questionable. […] So, in the case of Grp1, there is only a five times difference in affinity between immobilised lipid headgroups and whole lipids in a lipid nanodisc (rather than the ∼100× enhancement observed with the kindlin-3 PH domain).
SPR experiments were performed using a Biacore T200 machine (GE Healthcare Life Sciences) at 20°C in 10 mM HEPES (pH 7.5) and 150 mM NaCl. PtdIns(4,5)P2 (C-45B6a) and PtdIns(3,4,5)P3 (C-39B6a) were purchased from Echelon Biosciences. The BIAcore CM5 chip (GE Healthcare Life Sciences) was firstly covered with streptavidin following the manufacturer's instructions before the biotinylated PIPs or biotinylated proteins were immobilised. The analyte with twofold serial dilutions was applied at a flow rate of 20 µl/min for 180 s followed by 600 s of dissociation time. […]

Assay [4] concerns the target T3, Grp1 PH domain. Further details: method as in PMID 26977543. Particulars: same method; ref [34]; cited from earlier work.
The target in assay [5] is T1, kindlin-3 PH domain. The assay is described as follows: SPR, immobilised biotinylated lipid headgroup as ligand, kindlin-3 PH domain WT as analyte. It is filed as binding. From the text: To verify the potential interaction between clustered phosphatidylinositol phosphates and the kindlin-3 PH domain observed in our MD simulations, we conducted surface plasmon resonance (SPR) experiments. Firstly, a biotinylated inositol phosphate was immobilised onto a streptavidin-derivatised sensor chip, as in previous studies. The use of streptavidin-mediated immobilisation meant that the distance separating individual lipids would be larger than the size of the tetrameric streptavidin, and therefore than the PH domain itself, meaning that one PH domain would be able to bind no more than one lipid headgroup simultaneously, imposing one-to-one binding in the interaction (Figure 4A). […] We note that, in the MD simulation with the mutated form of the kindlin-3 PH domain, the protein is capable of binding to the bilayer in a similar orientation to the wild type (WT); however, in many simulations, it quickly dissociates from the bilayer (Supplementary Figure S8). A naturally occurred IPRR (isoleucine–proline–arginine–arginine) insertion in the β1–β2 loop of kindlin-3 has been reported to disable integrin activation and thus lymphocyte adhesion and migration.
SPR experiments were performed using a Biacore T200 machine (GE Healthcare Life Sciences) at 20°C in 10 mM HEPES (pH 7.5) and 150 mM NaCl. PtdIns(4,5)P2 (C-45B6a) and PtdIns(3,4,5)P3 (C-39B6a) were purchased from Echelon Biosciences. The BIAcore CM5 chip (GE Healthcare Life Sciences) was firstly covered with streptavidin following the manufacturer's instructions before the biotinylated PIPs or biotinylated proteins were immobilised. The analyte with twofold serial dilutions was applied at a flow rate of 20 µl/min for 180 s followed by 600 s of dissociation time. The biosensor chip was regenerated after each sample injection cycle with a different buffer in the two experimental set-ups: in the case of immobilised PIPs on the sensor chip, 0.1% SDS was used; when the PH domain was immobilised, then the surface was regenerated by 2 M MgCl2. The data were fit with a 1:1 Langmuir adsorption model (B = BmaxC/(KD + C), where B is the response of bound analyte and C is the concentration of the analyte in the sample to calculate the dissociation constant (KD) using the BIAanalysis software. The molecular mass of the nanodiscs for SPR analysis was estimated to be 120 kDa.

Setting [6] is: immobilised headgroup on streptavidin chip, WT PH domain as analyte, 20°C, 10 mM HEPES pH 7.5, 150 mM NaCl, 1:1 Langmuir fit, read-out: dissociation constant (KD).

Like-named read-outs stand apart in the source and are kept apart here.

T1 sequence (Q8K1B8 344-479): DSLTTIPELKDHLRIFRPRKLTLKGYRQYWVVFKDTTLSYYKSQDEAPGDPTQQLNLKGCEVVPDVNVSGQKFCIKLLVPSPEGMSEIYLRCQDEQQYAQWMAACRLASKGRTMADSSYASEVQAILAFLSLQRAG

In the case of PtdIns(3,4,5)P3, the “nanodisc binding to the PH domain (in words)” value (on kindlin-3 PH domain [1] (PtdIns(3,4,5)P3 composition reduced to 1% of nanodisc lipids); in assay [2]) was “abolishes nanodisc binding” throughout. On Grp1 PH domain [3] (immobilised PtdIns(3,4,5)P3 headgroup), the Bmax worked out at 7150 RU. Moreover, the Kd on Grp1 PH domain [3] (immobilised headgroup) is 2.8 ± 0.4 µM; on kindlin-3 PH domain [5] (immobilised headgroup on streptavidin chip, WT PH domain as analyte, 20°C, 10 mM HEPES pH 7.5, 150 mM NaCl, 1:1 Langmuir fit, listed as PIP3, read-out: dissociation constant (KD)), about 300 µM; on kindlin-3 PH domain [5] (setting [6]), 300 µM. In addition, the PMF well depth on Grp1 PH domain [4] was -5.3 kcal/mol.

In the case of PtdIns(4,5)P2, the “nanodisc binding to the PH domain (in words)” value at kindlin-3 PH domain [1] (inositol phosphate lipid 5% of total lipids in nanodisc) was “no affinity”. Further, the PMF well depth on Grp1 PH domain [4] was -3.8 kcal/mol. Also, the dissociation constant Kd at kindlin-3 PH domain [5] (setting [6]) was 1100 µM; at kindlin-3 PH domain [5] (immobilised headgroup, PH domain as analyte, as given in the abstract, read-out: affinity (KD)) it was 1000 µM.

The Kd is the concentration at which binding is half-saturated.
